One experiment concerns the target T1, human B1R (Homo sapiens, UniProt P46663).
T1 construct: expressed in transfected cells; host or cells: CHO K1 cells (hB1R cells)
T1 sequence (P46663 1-353): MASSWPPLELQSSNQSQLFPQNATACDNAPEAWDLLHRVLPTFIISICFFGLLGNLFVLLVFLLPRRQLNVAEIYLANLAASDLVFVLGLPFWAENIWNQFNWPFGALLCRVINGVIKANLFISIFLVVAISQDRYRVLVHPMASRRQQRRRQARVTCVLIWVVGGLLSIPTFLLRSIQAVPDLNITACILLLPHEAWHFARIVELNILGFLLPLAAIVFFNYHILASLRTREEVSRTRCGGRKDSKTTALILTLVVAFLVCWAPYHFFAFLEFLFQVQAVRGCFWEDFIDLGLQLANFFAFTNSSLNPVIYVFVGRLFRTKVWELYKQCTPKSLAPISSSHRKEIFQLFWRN
Briefly: FLIPR Ca2+ influx assay, B1R antagonism, human (hB1R CHO K1 cells). Format: cell-based. To be noted: test substance 10 μM, CHO K1 cells stably transfected with human B1R, agonist Lys-Des-Arg9-bradykinin at EC80, % inhibition compared with maximum achievable inhibition; for inhibition at 10 µM: read-out: B1R antagonism, human [10 μM] % inhibition. The gist of the method: (§1)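 CHO K1 cells stably expressing human or rat B1R were loaded with Fluo-4, and Ca^2+ fluorescence was read on a FLIPR. After 10–20 min with test substance, agonist was added at EC80: Lys-Des-Arg^9-bradykinin for hB1R, Des-Arg^9-bradykinin for rB1R. % inhibition is relative to maximal inhibition; IC50 from multiple concentrations, n=2–3, N≥2.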

In a further experiment the target is T2, B1R of the rat (Rattus norvegicus, UniProt P97583).
T2 construct: expressed in transfected cells; host or cells: CHO K1 cells (rB1R cells)
T2 sequence (P97583 1-337): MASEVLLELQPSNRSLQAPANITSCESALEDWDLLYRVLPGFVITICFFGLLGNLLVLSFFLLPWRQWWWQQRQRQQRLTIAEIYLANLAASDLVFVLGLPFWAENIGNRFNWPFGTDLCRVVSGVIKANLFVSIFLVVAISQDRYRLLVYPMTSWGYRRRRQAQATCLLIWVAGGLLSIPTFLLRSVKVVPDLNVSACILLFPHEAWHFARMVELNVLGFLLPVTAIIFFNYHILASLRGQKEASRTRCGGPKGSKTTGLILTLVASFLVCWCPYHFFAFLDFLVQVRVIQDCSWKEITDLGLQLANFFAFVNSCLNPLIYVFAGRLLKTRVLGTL
Briefly: FLIPR Ca2+ influx assay, B1R antagonism, rat (rB1R CHO K1 cells). Format: cell-based. To be noted: test substance 10 μM, CHO K1 cells stably transfected with rat B1R, agonist Des-Arg9-bradykinin at EC80, % inhibition compared with maximum achievable inhibition; for inhibition at 10 µM: read-out: B1R antagonism, rat [10 μM] % inhibition. The method, boiled down:
as §1

Structures can show the parent of a compound that is named as a salt.

For `COc1cc(C)c(S(=O)(=O)N(CCOCC(=O)N2CCC(CCCN3CCCC3)(c3cccnc3)CC2)c2ccccc2)c(C)c1` [Example 48, 4-Methoxy-2,6-Dimethyl-N-[2-[2-oxo-2-[4-pyridin-3-yl-4-(3-pyrrolidin-1-yl-propyl)-piperidin-1-yl]-ethoxy]-ethyl]-N-phenyl-benzenesulfonic acid amide], the inhibition at 10 µM at human B1R is 100%; at B1R of the rat, 103%.

On to `COc1cc(C)c(S(=O)(=O)N2c3ccccc3CCC2COCC(=O)N2CCC(CCCN3CCCC3)(c3cccnc3)CC2)c(C)c1` (stereo not shown) [Example 53, 2-[[1-[(4-Methoxy-2,6-dimethyl-phenyl)sulfonyl]-1,2,3,4-tetrahydro-quinolin-2-yl]-methoxy]-1-[4-pyridin-3-yl-4-(3-pyrrolidin-1-yl-propyl)-piperidin-1-yl]-ethanone], for which the inhibition at 10 µM on human B1R is 100%; at B1R of the rat, 102%.

With `COc1cc(C)c(S(=O)(=O)N2CCCCC2CCCC(=O)N2CCC(CCCN3CCCC3)(c3cccnc3)CC2)c(C)c1` (stereo not shown) [Example 60, 4-[1-[(4-Methoxy-2,6-dimethyl-phenyl)sulfonyl]-piperidin-2-yl]-1-[4-pyridin-3-yl-4-(3-pyrrolidin-1-yl-propyl)-piperidin-1-yl]-butan-1-one], the inhibition at 10 µM on human B1R was 100%; at B1R of the rat, 104%.

`COc1cc(C)c(S(=O)(=O)N2CCCCC2CCCC(=O)N2CCC(CCCN3CCCC3)(c3cccnc3)CC2)c(C)c1` (stereo not shown) [Example 61, 4-[1-[(4-Methoxy-2,6-dimethyl-phenyl)sulfonyl]-piperidin-2-yl]-1-[4-pyridin-3-yl-4-(3-pyrrolidin-1-yl-propyl)-piperidin-1-yl]-butan-1-one]: the “B1R antagonism, human [10 μM] % inhibition” value on human B1R is on record as 100%. Moreover, the “B1R antagonism, rat [10 μM] % inhibition” value on B1R of the rat was found to be 103%.

Consider `COc1cc(C)c(S(=O)(=O)N2c3ccccc3OCC2COCC(=O)N2CCC(CCCN3CCCC3)(c3cccnc3)CC2)c(C)c1` (stereo not shown) [Example 67, 2-[[4-[(4-Methoxy-2,6-dimethyl-phenyl)sulfonyl]-3,4-dihydro-2H-[1,4]benzoxazin-3-yl]-methoxy]-1-[4-pyridin-3-yl-4-(3-pyrrolidin-1-yl-propyl)-piperidin-1-yl]-ethanone], for which the inhibition at 10 µM came to 100% on human B1R and 102% on B1R of the rat.

On to `COc1cc(C)c(S(=O)(=O)N2c3ccccc3OCC2COCC(=O)N2CCC(CCCN3CCCC3)(c3cccnc3)CC2)c(C)c1` (stereo not shown) [Example 68, 2-[[4-[(4-Methoxy-2,6-dimethyl-phenyl)sulfonyl]-3,4-dihydro-2H-[1,4]benzoxazin-3-yl]-methoxy]-1-[4-pyridin-3-yl-4-(3-pyrrolidin-1-yl-propyl)-piperidin-1-yl]-ethanone], for which, on human B1R, the “B1R antagonism, human [10 μM] % inhibition” value was 100%. Besides, on B1R of the rat, the “B1R antagonism, rat [10 μM] % inhibition” value is 101%.

For the molecule `COc1cc(C)c(S(=O)(=O)N(CCOCC(=O)N2CCC(CCCN3CCCC3)(c3cccnc3)CC2)Cc2cnc3ccccc3c2)c(C)c1` [Example 71, 4-Methoxy-2,6-Dimethyl-N-[2-[2-oxo-2-[4-pyridin-3-yl-4-(3-pyrrolidin-1-yl-propyl)-piperidin-1-yl]-ethoxy]-ethyl]-N-(quinolin-3-yl-methyl)-benzenesulfonic acid amide], the inhibition at 10 µM stood at 100% on human B1R and 103% on B1R of the rat.

For the molecule `Cc1cccc(Cl)c1S(=O)(=O)N1c2ccccc2OCC1COCC(=O)N1CCC(CCCN2CCCC2)(c2cccnc2)CC1` (stereo not shown) [Example 72, 2-[[4-[(2-Chloro-6-methyl-phenyl)sulfonyl]-3,4-dihydro-2H-[1,4]benzoxazin-3-yl]-methoxy]-1-[4-pyridin-3-yl-4-(3-pyrrolidin-1-yl-propyl)-piperidin-1-yl]-ethanone], the results for the inhibition at 10 µM on human B1R and on B1R of the rat were 100% and 103%, respectively.

In the case of `O=C(COCC1COc2ccccc2N1S(=O)(=O)c1ccccc1C(F)(F)F)N1CCC(CCCN2CCCC2)(c2cccnc2)CC1` (stereo not shown) [Example 74, 1-[4-Pyridin-3-yl-4-(3-pyrrolidin-1-yl-propyl)-piperidin-1-yl]-2-[[4-[[2-(trifluoromethyl)-phenyl]sulfonyl]-3,4-dihydro-2H-[1,4]benzoxazin-3-yl]-methoxy]-ethanone], the inhibition at 10 µM at human B1R was 100%. Also, at B1R of the rat, the “B1R antagonism, rat [10 μM] % inhibition” value is 93%.

For the molecule `Cc1cccc(Cl)c1S(=O)(=O)N(CCOCC(=O)N1CCC(CCCN2CCCC2)(c2cccc(Cl)c2)CC1)C1CC1` [Example 77, 2-Chloro-N-[2-[2-[4-(3-chlorophenyl)-4-(3-pyrrolidin-1-yl-propyl)-piperidin-1-yl]-2-oxo-ethoxy]-ethyl]-N-cyclopropyl-6-methyl-benzenesulfonic acid amide], the inhibition at 10 µM on human B1R was determined as 100%; at B1R of the rat, 92%.

For the molecule `Cc1cccc(Cl)c1S(=O)(=O)N(CCOCC(=O)N1CCC(CCCN2CCCC2)(c2cccc(C(F)(F)F)c2)CC1)C1CC1` [Example 78, 2-Chloro-N-cyclopropyl-6-methyl-N-[2-[2-oxo-2-[4-(3-pyrrolidin-1-yl-propyl)-4-[3-(trifluoromethyl)phenyl]-piperidin-1-yl]-ethoxy]-ethyl]-benzenesulfonic acid amide], the figures for the inhibition at 10 µM on human B1R and on B1R of the rat were 97% and 92%, respectively.

Regarding `Cc1cccc(Cl)c1S(=O)(=O)N(CCOCC(=O)N1CCC(CCCN2CCCC2)(c2cccc(F)c2)CC1)C1CC1` [Example 79, 2-Chloro-N-cyclopropyl-N-[2-[2-[4-(3-fluorophenyl)-4-(3-pyrrolidin-1-yl-propyl)-piperidin-1-yl]-2-oxo-ethoxy]-ethyl]-6-methyl-benzenesulfonic acid amide], the inhibition at 10 µM at human B1R amounted to 100%; at B1R of the rat it was 103%.

On to `COc1cc(C)c(S(=O)(=O)N2CCCC[C@H]2COCC(=O)N2CCC(CCN3CCCC3)(c3cccnc3)CC2)c(C)c1` [Example 80, 2-[[(2S)-1-[(4-Methoxy-2,6-dimethyl-phenyl)sulfonyl]-piperidin-2-yl]-methoxy]-1-[4-pyridin-3-yl-4-(2-pyrrolidin-1-yl-ethyl)-piperidin-1-yl]-ethanone hydrochloride], for which the inhibition at 10 µM worked out at 100% on human B1R and 104% on B1R of the rat.

For the molecule `COc1cc(C)c(S(=O)(=O)N2CCCC[C@H]2COCC(=O)N2CCC(CCCN3CCCC3)(c3cccnc3)CC2)c(C)c1` [Example 81, 2-[[(2S)-1-[(4-Methoxy-2,6-dimethyl-phenyl)sulfonyl]-piperidin-2-yl]-methoxy]-1-[4-pyridin-3-yl-4-(3-pyrrolidin-1-yl-propyl)-piperidin-1-yl]-ethanone hydrochloride], the results for the inhibition at 10 µM at human B1R and at B1R of the rat were 100% and 102%, respectively.
